Measured values taken from patent publication US8143419B2, “Trisubstituted 1,2,4-triazoles” (Janssen Pharmaceutica N. V., priority 2006, dated 2012).
Where a name gives a salt, the structure may show the parent alone.

Key:
[1] = biological target: T1, hα7-wt nAChR (Homo sapiens, UniProt P36544); experiment: Ca2+ flux imaging (FDSS) (Protocol B), PAM activity with choline as agonist; type: cell-based; details: for EC50: "<5" = no top plateau at maximal concentration; for Emax: read-out: % efficacy
T1 construct: expressed in transfected cells
T1 sequence (P36544 23-502): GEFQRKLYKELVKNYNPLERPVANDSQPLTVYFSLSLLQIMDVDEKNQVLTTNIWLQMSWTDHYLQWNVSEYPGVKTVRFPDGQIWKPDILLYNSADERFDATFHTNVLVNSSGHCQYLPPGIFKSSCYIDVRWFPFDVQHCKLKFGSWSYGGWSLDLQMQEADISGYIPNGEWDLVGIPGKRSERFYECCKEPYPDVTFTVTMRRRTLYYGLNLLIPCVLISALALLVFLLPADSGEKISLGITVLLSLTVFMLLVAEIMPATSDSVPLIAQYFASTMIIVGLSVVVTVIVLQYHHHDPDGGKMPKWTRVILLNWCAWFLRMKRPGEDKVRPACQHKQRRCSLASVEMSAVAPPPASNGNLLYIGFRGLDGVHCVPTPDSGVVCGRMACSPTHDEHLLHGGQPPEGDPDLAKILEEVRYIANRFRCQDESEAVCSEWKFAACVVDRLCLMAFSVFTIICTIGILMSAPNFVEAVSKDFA
Description: • Hanks buffered saline solution (HBSS, Invitrogen, Belgium), supplemented with 10 mM HEPES (Invitrogen, Belgium), CaCl2 to a final concentration of 5 mM, 0.1% Bovine serum albumin (Sigma-Aldrich NV, Belgium). b) Calcium-Sensitive Dye—Fluo-4AM • Fluo-4AM (Molecular Probes, USA) was dissolved in DMSO containing 10% Pluronic acid (Molecular Probes, USA) to give a stock solution which was diluted in assay buffer supplemented with 5 mM probenicid (Sigma, Aldrich NV, Belgium) to give a final concentration of 2 μM. c) 384-Well Plates • Black 384 well plate black/clear plates, PDL pre-coated (Corning, Incorporated, USA) d) Calcium Flux Measurement
A Functional drug screening system (FDSS, Hamamatsu) was used to measure intracellular free-calcium flux signals.
Monolayers of hα7-wt nAChR-expressing cells were grown in multi-well plates, in particular black-sided, transparent bottomed 384 well plates coated with poly-D-lysine for 24 hours prior to loading with a fluorescent calcium indicator, in a particular embodiment loading with fluo-4AM for up to 120 minutes.
PAM activity was detected in real time by applying the compounds to be tested to the loaded cells along with a α7 nicotinic receptor agonist during constant monitoring of cellular fluorescence in a FDSS. Compounds giving peak fluorescent responses greater than the response due to agonist alone, were considered to be α7 nAChR PAM's. In a particular embodiment, the α7 nicotinic receptor agonist was choline, a more particular embodiment choline applied at a sub-maximal concentration of 100 μM. In a further setting of the present invention the compounds to be tested were applied prior to the α7 nicotinic receptor agonist, in a particular embodiment up to 10 minutes prior to the agonist.
A control response to choline was calculated on each plate from the difference in peak in fluorescence in wells receiving either choline or assay buffer alone. Compounds of the present invention were tested at a concentration range from 0.01 μM to 30 μM. Compounds were considered to have an interesting activity when they potentiated the choline signal at least with 500% when tested at a concentration of 30 μM (the efficacy of 100 μM choline was defined as 100% in the absence of a PAM). The compounds also have a potentiating effect on the response to choline when measured by whole-cell patch clamp electrophysiology in GH4C1 cells stably over-expressing the human wild-type α7 receptor.

| Structure (SMILES) | melting point [°C] | EC50 [1] [µM] | Emax [1] [%] |
| --- | --- | --- | --- |
| OCCn1nc(Nc2cccc(C(F)(F)F)c2)nc1-c1ccncc1 [Compound 2] | 179.1 to 180 | 7.94 | – |
| COCCNc1ccc(-c2nc(Nc3ccc(F)c(C(F)(F)F)c3)nn2CCO)cn1 [Compound 93] | – | 3.16 | 764 |
| CNC(=O)Cn1nc(Nc2ccc(F)c(C(F)(F)F)c2)nc1-c1ccc(NCCOC)nc1 [Compound 115] | 207.1 | > 10 | – |
| Cc1cc(-c2nc(Nc3ccc(F)c(C)c3)nn2CCC(=O)N(C)C)ccn1 [Compound 184] | 158.8 | 0.794 | – |
| CNC(=O)Cn1nc(Nc2cccc(OC(F)(F)F)c2)nc1-c1ccc(C2CC2)nc1 [Compound 155] | 217 | 0.316 | – |
| CCNc1ccc(-c2nc(Nc3cc(F)c(F)cc3F)nn2CCC(=O)N(C)C)cn1 [Compound 190] | 134.2 | 0.398 | – |
| OCCn1nc(Nc2ccc(F)c(C(F)(F)F)c2)nc1-c1ccncc1 [Compound 87] | 171.1 | 2.51 | – |
| CN(C)C(=O)CCn1nc(Nc2ccc(F)c(C(F)(F)F)c2)nc1-c1cccnc1 [Compound 125] | 190 | 0.631 | – |
| CC(C)(C)OC(=O)CCn1nc(Nc2ccc(F)c(C(F)(F)F)c2)nc1-c1ccnc(CN)c1 [Compound 30] | 151.6 | – | – |
| CC(C)c1ccc(-c2nc(Nc3ccc(F)c(C(F)(F)F)c3)nn2CCC(=O)N(C)C)cn1 [Compound 129] | 176.3 | 0.0398 | – |
| OCCn1nc(Nc2ccc(F)c(C(F)(F)F)c2)nc1-c1ccc(NC2CC2)nc1 [Compound 95] | – | 2 | 899 |
| CNC(=O)Cn1nc(Nc2cc(F)c(F)c(NC)c2)nc1-c1ccnc(NC)c1 [Compound 35] | 221.6 | > 10 | – |
| CC(=O)c1cc(-c2nc(Nc3ccc(F)c(C(F)(F)F)c3)nn2CC(=O)NC2CC2)ccn1 [Compound 123] | 213.2 | 1.26 | – |
| CC(C)(C)OC(=O)CCn1nc(Nc2ccc(F)c(C(F)(F)F)c2)nc1-c1ccnc(C#N)c1 [Compound 29] | 156.1 | – | – |
| CC(C)c1ccc(-c2nc(Nc3ccc(F)cc3)nn2CCO)cn1 [Compound 169] | 135.1 | 3.16 | 762 |
| CNC(=O)Cn1nc(Nc2cccc(OC(F)(F)F)c2)nc1-c1ccncc1F [Compound 154] | 192.2 | 3.16 | – |
| CNC(=O)Cn1nc(Nc2cccc(OC(F)(F)F)c2)nc1-c1ccc2c(c1)OCCO2 [Compound 156] | 185.8 to 191.3 | 0.398 | – |
| C/C(N)=N/OC(=O)CCn1nc(Nc2ccc(F)c(C(F)(F)F)c2)nc1-c1ccncc1 [Compound 53] | 190.2 | 5.01 | – |
| COc1ccc(Nc2nc(-c3ccncc3Cl)n(CCC(=O)N(C)C)n2)cc1C(F)(F)F [Compound 145] | 211.2 | 0.2 | – |
| COc1cc(Nc2nc(-c3ccnc(NCCO)c3)n(CC(=O)NCCO)n2)cc(C(F)(F)F)c1 [Compound 147] | – | > 10 | 864 |

| Structure (SMILES) | melting point [°C] | EC50 [1] [µM] | Emax [1] [%] |
| --- | --- | --- | --- |
| COc1cc(-c2nc(Nc3ccc(F)c(C(F)(F)F)c3)nn2CCO)ccn1 [Compound 90] | 177.1 | 2 | – |
| CCNC(=O)Cn1nc(Nc2cccc(OC(F)(F)F)c2)nc1-c1ccc2c(c1)OCCO2 [Compound 158] | 188.7 | 0.158 | – |
| CNC(=O)Cn1nc(Nc2ccc(F)c(C(F)(F)F)c2)nc1-c1ccc(C)nc1 [Compound 108] | 247.1 | 2.51 | – |
| CNC(=O)Cn1nc(Nc2cc(OC)cc(C(F)(F)F)c2)nc1-c1ccnc(NC)c1 [Compound 146] | 241.1 | 1 | – |
| CN(C)C(=O)CCn1nc(Nc2cccc(OC(F)(F)F)c2)nc1-c1ccc(N)c(F)c1 [Compound 167] | 157.1 | 0.398 | – |
| CC1(NC(=O)Cn2nc(Nc3cccc(OC(F)(F)F)c3)nc2-c2ccc3c(c2)OCCO3)CC1 [Compound 166] | 219.3 | 0.2 | – |
| CC(=O)c1ccc(-c2nc(Nc3ccc(F)c(F)c3)nn2C[C@H](C)O)cn1 [Compound 50] | 147.8 | 6.31 | 650 |
| CC(O)Cn1nc(Nc2cccc(OC(F)(F)F)c2)nc1-c1ccnc(C2CC2)c1 (centres unmarked) [Compound 151] | – | 2 | – |
| CC(C)NC(=O)Cn1nc(Nc2cccc(OC(F)(F)F)c2)nc1-c1ccc2c(c1)OCCN2C [Compound 160] | 153.3 | 0.126 | – |
| CNC(=O)Cn1nc(Nc2ccc(F)c(C(F)(F)F)c2)nc1-c1ccc(OC)nc1 [Compound 110] | 255.1 | 0.126 | – |
| CN(C)C(=O)CCn1nc(Nc2ccc(F)c(F)c2)nc1-c1ccc(C(F)(F)F)nc1 [Compound 191] | 194.4 | 1.26 | – |
| CNC(=O)Cn1nc(Nc2ccc(F)c(C(F)(F)F)c2)nc1-c1ccncc1NC [Compound 114] | 260.8 | 0.631 | – |
| C[C@H](O)Cn1nc(Nc2ccc(F)c(C(F)(F)F)c2)nc1-c1ccnc(C2CC2)c1 [Compound 102] | – | 2 | – |
| N#CCCn1nc(Nc2cccc(C(F)(F)F)c2)nc1-c1ccncc1 [Compound 64] | 155.9 to 157.1 | – | – |
| CC(O)Cn1nc(Nc2cccc(OC(F)(F)F)c2)nc1-c1ccnc(C2CC2)c1 (centres unmarked) (as salt: HCl) [Compound 151] | 207.5 | – | – |
| C[C@H](O)Cn1nc(Nc2ccc(F)c(C(F)(F)F)c2)nc1-c1cnc2ccoc2c1 [Compound 106] | – | 2.51 | – |
| N/C(CCn1nc(Nc2ccc(F)c(C(F)(F)F)c2)nc1-c1ccnc(Cl)c1)=N\O [Compound 55] | 166.8 | – | – |
| O=C(CCn1nc(Nc2cccc(C(F)(F)F)c2)nc1-c1ccncc1)N1CCOCC1 [Compound 86] | – | 1.26 | – |
| CC(C)NC(=O)CCn1nc(Nc2cccc(C(F)(F)F)c2)nc1-c1ccncc1 [Compound 22] | 196.5 to 197.2 | – | – |
| O=C(O)CCn1nc(Nc2ccc(F)c(C(F)(F)F)c2)nc1-c1ccnc(Cl)c1 [Compound 31] | 180.7 | – | – |

| Structure (SMILES) | melting point [°C] | EC50 [1] [µM] | Emax [1] [%] |
| --- | --- | --- | --- |
| CCNc1cc(-c2nc(Nc3ccc(F)c(C(F)(F)F)c3)nn2C[C@H](C)O)ccn1 [Compound 99] | – | 1 | – |
| C[C@H](O)Cn1nc(Nc2cc(F)c(F)c(F)c2)nc1-c1ccnc(NC2CC2)c1 [Compound 173] | – | 0.501 | – |
| CN(C)C(=O)CCn1nc(Nc2cccc(Cl)c2)nc1-c1ccc2c(c1)OCCO2 [Compound 195] | – | 0.0794 | – |
| Cc1noc(CCn2nc(Nc3ccc(F)c(C(F)(F)F)c3)nc2-c2ccncc2)n1 [Compound 69] | – | 2 | – |
| OCCn1nc(Nc2cc(Cl)ccc2Cl)nc1-c1ccccc1 [Compound 17] | 140.5 to 142 | – | – |
| C[C@@H](O)Cn1nc(Nc2ccc(F)c(C(F)(F)F)c2)nc1-c1ccc(C2CC2)nc1 (as salt: HCl) (hydrate or solvate) [Compound 100] | 204.6 | – | – |
| CN(C)CCNC(=O)Cn1nc(Nc2cccc(OC(F)(F)F)c2)nc1-c1ccc2c(c1)OCCO2 [Compound 161] | – | 1.58 | 550 |
| CNC(=O)CCn1nc(Nc2cccc(C(F)(F)F)c2)nc1-c1ccc2c(c1)OCCO2 [Compound 12] | – | 0.794 | – |
| CN(C)C(=O)CCn1nc(Nc2ccc(F)c(C(F)(F)F)c2)nc1-c1cnc2c(c1)CCN2 [Compound 58] | – | 0.158 | – |
| COc1cc(OC)c(Nc2nc(-c3ccncc3)n(CCO)n2)cc1Cl [Compound 15] | 207.2 to 207.9 | – | – |
| CC(C)(C)NC(=O)CCn1nc(Nc2ccc(F)c(C(F)(F)F)c2)nc1-c1ccncc1 [Compound 137] | – | 1.58 | – |
| CCNC(=O)Cn1nc(Nc2cc(Br)cc(C(F)(F)F)c2)nc1-c1ccc(OC)c(OCc2ccccc2)c1 [Compound 142] | – | 0.1 | – |
| CN(C)C(=O)CCn1nc(Nc2ccc(F)c(C(F)(F)F)c2)nc1-c1ccnc(CN)c1 [Compound 60] | – | 3.98 | 772 |
| C[C@H](O)Cn1nc(Nc2ccc(F)c(C(F)(F)F)c2)nc1-c1ccc(C2CC2)nc1 [Compound 101] | – | 0.631 | – |
| CN(C)C(=O)CCn1nc(N2CCc3ccc(C(F)(F)F)cc32)nc1-c1ccc2c(c1)OCCO2 [Compound 211] | – | 1 | – |
| CCNc1cnccc1-c1nc(Nc2cccc(OC(F)(F)F)c2)nn1CC(C)O (centres unmarked) [Compound 149] | – | 1 | 704 |
| COc1ccc(Cl)cc1Nc1nc(-c2ccc3c(c2)OCCO3)n(CCC(=O)N(C)C)n1 [Compound 197] | – | 0.126 | – |
| Cc1cc(-c2nc(Nc3ccc4c(c3)OC(F)(F)O4)nn2CC(C)O)ccn1 (centres unmarked) [Compound 198] | – | > 10 | – |
